Experimental data published in PubChem BioAssay (NCI).
Values joined by “and” are separate entries in the source; they are usually repeats but may differ in a detail not shown here. Equal entries are not always repeated.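 Tested at 5 concentrations; 48 h exposure; 96-well plates; endpoints linearly interpolated, else capped at highest concentration. GI50: concentration for 50% inhibition of growth. TGI is the concentration that stops growth completely.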

Key:
Assay in all cases: NCI-60 cell line screen, 48 h
[1] = system: COLO 205 colon
[2] = system: K-562 leukemia
[3] = system: KM12 colon
[4] = system: MDA-MB-435
[5] = system: RXF 393 renal
[6] = system: SK-MEL-28 melanoma
[7] = system: SN12C renal
[8] = system: UACC-257 melanoma
[9] = system: SK-OV-3 ovarian
[10] = system: MDA-MB-231 breast

Row | Compound | TGI [1] [µM] | TGI [2] [µM] | TGI [3] [µM] | TGI [4] [µM] | TGI [5] [µM] | TGI [6] [µM] | TGI [7] [µM] | TGI [8] [µM] | TGI [9] [µM] | GI50 [2] | GI50 [10] | TGI [10] [µM]
1 | Cc1ccc(Nc2cn(COCc3ccccc3)c(=O)[nH]c2=O)cc1 | > 100 | > 100 | > 100 | > 100 | > 100 | > 100 | > 100 | > 100 |  |  |  | 
2 | CC#Cc1c(C#CC)c(OC)c2c(c1OC)C(=O)c1ccccc1C2=O | > 100 | > 100 | > 100 |  | 55.1 | > 100 | > 100 | > 100 | > 100 |  |  | 
3 | CC(Nc1n[nH]c(=O)c2c1nnn2Cc1ccccc1)c1ccccc1 (stereo not given) | > 100 | > 100 | > 100 | > 100 |  | > 100 | > 100 | > 100 |  | > 100 µM and 22.8 µM | > 100 µM and 49.8 µM | > 100
4 | C=CCC1C2CCC(O[Si](C(C)C)(C(C)C)C(C)C)(C(C(=O)OC)C2)C1O (stereo not given) | > 100 | > 100 | > 100 | > 100 |  | > 100 | > 100 | > 100 | > 100 |  |  | > 100
5 | CC1(C)N=C(Oc2ccccc2)n2nccc2N1 | > 100 | > 100 | > 100 |  | > 100 | > 100 | > 100 | > 100 | > 100 |  |  | 
6 | Cc1cc(C)nc(NS(=O)(=O)c2ccc(NC(=O)c3cccc4c(N)c5ccccc5nc34)cc2)n1 | > 100 | > 100 | > 100 |  | > 100 | > 100 | > 100 | > 100 | > 100 |  |  | 
7 | CCOC(=O)c1c(NC(=O)c2ccc(Br)cc2)sc2c1CCCC2 | > 100 | > 100 | > 100 | > 100 | > 100 | > 100 | > 100 | > 100 |  |  |  | > 100
8 | CCCOP(=S)(N1CC1)N1CC1 | > 100 | > 100 | > 100 |  | > 100 | > 100 | > 100 | 46.5 | > 100 |  |  | 
9 | Cc1cc(Cl)ccc1NC(=O)C(=O)Cc1occc(=O)c1O | > 100 | > 100 | > 100 |  | > 100 | > 100 | > 100 | > 100 | > 100 |  |  | 
10 | CC[C@H](C)[C@H]1NC(=O)[C@@H](NC(=O)[C@@H](CC(C)C)N(C)C(=O)C2CCCN2C(=O)[C@H](C)O)[C@@H](C)OC(=O)[C@H](Cc2ccccc2)N(C)C(=O)[C@@H]2CCCN2C(=O)[C@H](CC(C)C)NC(=O)[C@@H](C)C(=O)[C@H](C(C)C)OC(=O)C[C@@H]1O (stereo not given in full) | 0.0769 | > 62.5 | < 0.00625 |  | 0.0179 | 0.00828 | > 14.5 | < 0.00625 | 0.101 |  |  | 
11 | N#CCN(Cc1ccccc1)[C@@H]1CCC[C@]1(O)C#Cc1ccc2c(c1)OCO2 | 32.3 | 60.4 | 35.4 | 42.1 | 30.3 | 33.3 |  | 37.9 | 90.1 |  |  | 36.1
12 | Cc1nc2nn(C)cc2c(=O)n1/N=C/c1ccccc1 | > 100 | > 100 | > 100 |  | > 100 | > 100 | > 100 | > 100 | > 100 |  |  | 
13 | COc1ccc(/C=C(\Cl)c2ccc(OC)cc2)cc1 | > 100 | > 100 | > 100 |  |  | > 100 | > 100 | > 100 | > 100 |  |  | 
14 | CN(CCO)/N=N/c1nc[nH]c1C(N)=O | > 100 |  | > 100 |  | > 100 | > 100 | > 100 | > 100 | > 100 |  |  | 
15 | c1cc(C[S+]2CCCC2)oc1C[S+]1CCCC1 | > 100 | > 100 |  | > 100 | > 100 | > 100 | > 100 | > 100 | > 100 |  |  | > 100
16 | Cc1ccc(-n2cc(-c3ccc(Cl)cc3)c3c2N=CN2NC(c4cccs4)=NC32)cc1 (stereo not given) | 28.7 | > 100 |  | > 100 | 31.4 | > 100 | 29 | > 100 | 37.3 |  |  | 21.5
17 | COC(=O)CNCC1OC2OC(C)(C)OC2C1N=[N+]=[N-] (stereo not given) |  | > 100 | > 100 | > 100 | > 100 | > 100 | > 100 | > 100 | > 100 |  |  | 
18 | O=c1oc2c(ccc3c(O)cccc32)c2c1CCCC2 | > 100 | > 100 | > 100 | > 100 | 39.8 | > 100 | > 100 | > 100 |  |  |  | 47.1
19 | CC(=O)Oc1cc(S(=O)(=O)Nc2n[nH]c(N)n2)c(S)cc1Cl | > 100 | > 100 | > 100 | > 100 |  | > 100 | > 100 | > 100 |  |  |  | > 100
20 | COc1nc(OC)nc(Sc2ccc(Sc3ccc(Sc4nc(OC)nc(OC)n4)cc3)cc2)n1 | > 100 | > 100 | > 100 |  | > 100 | > 100 | > 100 | > 100 | > 100 |  |  | 
21 | COC(=O)[C@@H]1[C@H](O)CC[C@H]2[C@@]1(C)CC[C@@H](C)[C@]2(COC(C)=O)CC(=O)c1ccoc1 | > 50 |  | > 50 | > 50 | > 50 | > 50 | > 50 | > 50 | > 50 |  |  | > 50
22 | O=C1Cc2ccccc2CCc2ccsc21 | > 100 | > 100 | > 100 |  | > 100 | > 100 | > 100 | > 100 | > 100 |  |  | 
23 | Cc1ccccc1NC(=O)CSc1nnc(Cc2ccccc2)o1 | > 100 | > 100 | > 100 |  | > 100 | > 100 | > 100 | > 100 | > 100 |  |  | 
24 | CCc1n[nH]c(=S)n1/N=C\c1ccc(-c2ccccc2[N+](=O)[O-])o1 | > 100 | > 100 | > 100 | 39.4 | > 100 |  | > 100 | > 100 | > 100 |  |  | > 100
